Where two headings read alike, the source gives them in different places.
Columns and labels:
Format in all cases: cell-based
[1] = test system: NB4 cells (acute promyelocytic leukaemia); assay: Cell differentiation by reduction of nitroblue tetrazolium (NBT), with suboptimal ATRA; conditions: for AC50 / fold induction (differentiation, compound + ATRA vs ATRA alone): combined with suboptimal doses of ATRA, NBT; for AC50: 3 days, read-out: AC50 (concentration at which the tested compound induces 50% of cell differentiation)
Procedure: The first line used was the NB4 cell line, bearing the t(15;17) chromosomal translocation which generates the fusion protein PML/RARα. This line is very sensitive to the differentiative action of pharmacological doses of ATRA (10^−7–10^−6 M).
(§1) The HL60 and NB4 cells were seeded at a density of 150,000 cells/ml in RPMI 1640 medium containing 10% foetal calf serum, and were treated with the tested compounds in the presence and absence of suboptimal doses of ATRA (5–10 nM for NB4 and 0.5 μM for HL60, respectively) in the dark, and returned to the incubator for 3 days without ever replacing the culture medium.
(§2) To analyse the differentiative effect of the tested compounds vs ATRA, on the third day of treatment 500,000 viable cells were harvested from each sample, centrifuged for 10 minutes at 1.000 rpm and resuspended in 1 ml of RPMI 1640 medium containing 10% foetal calf serum, 1 mg/ml of nitroblue tetrazolium (NBT) and 100 ng of PMA (phorbol 12-myristate 13-acetate).
(§3) The cells thus resuspended were incubated in the dark at 37° C. for 60 minutes.
(§4) At the end of the incubation, the cell suspension was centrifuged for 10 minutes at 10,000 rpm; the pellet obtained was then resuspended in 1 ml of PBS containing 10% Triton X-100 and sonicated to lysis.
(§5) Spectrophotometric readings of the samples were then taken at a wavelength of 540 nm: samples containing differentiated cells shifted towards a violet colour, whereas control samples and/or samples with non-differentiated cells were colourless or, at any rate, much less intensely coloured.
(§6) The AC50 (Activating Concentration) is the concentration at which the tested compound induces 50% of cell differentiation.
(§7) Fold Induction is the increase in the differentiation value of the cell sample treated with the tested compound +ATRA vs the value of the cell sample treated with ATRA alone. This value provides an indication of the ability (potency) of the tested compound to enhance ATRA induced cell differentiation.

[2] = test system: NB4 cells (acute promyelocytic leukaemia); assay: Flow cytofluorimetric analysis of cell cycle; set-up: APOPTOSIS: unit not given here; conditions: for effect of the compound alone on cell cycle and apoptosis (in words): compound alone (ST 1346: high doses)
Procedure: The first line used was the NB4 cell line, bearing the t(15;17) chromosomal translocation which generates the fusion protein PML/RARα.
(§8) To assess the effect of the tested compounds on the various phases of the cell cycle, on the third day of treatment 500,000 cells were harvested, centrifuged at 1,000 rpm for 10 minutes, washed twice in PBS w/o (PBS without calcium and magnesium) and fixed in a solution of 50% PBS w/o+50% methanol/acetone (1:4 v/v) for at least 1 hour; the cells were then centrifuged as described, washed in PBS w/o and centrifuged again.
(§9) 200 μl of propidium iodide 100 μg/ml and 200 μl of RNase 150 kU/mg were then added to the cell pellet.
(§10) After a 30-min incubation in the dark at room temperature, the samples were analysed by flow cytofluirometry.

[3] = test system: HL60 cells (acute promyelocytic leukaemia); assay: Cell differentiation by reduction of nitroblue tetrazolium (NBT), with suboptimal ATRA; conditions: combined with suboptimal doses of ATRA; for AC50: Homo sapiens, HL-60, 72 h, 3 days, read-out: AC50 (concentration at which the tested compound induces 50% of cell differentiation)
Procedure: (§11) The second line used was the HL60 cell line which responds to ATRA (but is less sensitive than the NB4 cell line).
as §1, §2, §3, §4, §5, §6, §7

[4] = test system: HL60 cells (acute promyelocytic leukaemia); assay: Flow cytofluorimetric analysis of cell cycle; conditions: day 3
Procedure: as §11, §1, §8, §9, §10

[5] = compound 1 μM + ATRA 0.01 μM, day 3
[6] = compound 1 μM + ATRA 0.01 μM, day 3, listed as ST1346
[7] = compound 5 μM + ATRA 0.01 μM, day 3
[8] = compound 5 μM + ATRA 0.01 μM, day 3, listed as ST1346
[9] = compound 10 μM + ATRA 0.01 μM, day 3
[10] = compound 10 μM + ATRA 0.01 μM, day 3, listed as ST1346
[11] = compound 50 μM + ATRA 0.01 μM, day 3
[12] = compound 50 μM + ATRA 0.01 μM, day 3, listed as ST1346

With `O=C(O)CCC(c1c[nH]c2ccccc12)c1c[nH]c2ccccc12` [ST 1961, 4,4-di-(1H-indolyl-)butanoic acid] the AC50 [1] was 6.6 ± 2 µM, the “fold induction (differentiation, compound + ATRA vs ATRA alone)” value [1] was 1.4 and the APOPTOSIS ([2]; compound alone 1 μM, day 3) was 18.5. The G0/G1 ([2]; compound alone 1 μM, day 3) was 47.5, the G2/M ([2]; compound alone 1 μM, day 3) was 15.6 and the S ([2]; compound alone 1 μM, day 3) was 36.9. It also gave an APOPTOSIS ([2]; compound alone 5 μM, day 3) of 24.0, a G0/G1 ([2]; compound alone 5 μM, day 3) of 49.7 and a G2/M ([2]; compound alone 5 μM, day 3) of 13.0. For the same compound, the S ([2]; compound alone 5 μM, day 3) was 37.3, the APOPTOSIS ([2]; compound alone 10 μM, day 3) was 24.0 and the G0/G1 ([2]; compound alone 10 μM, day 3) was 48.4. For the same compound, the G2/M ([2]; compound alone 10 μM, day 3) was 14.1, the S ([2]; compound alone 10 μM, day 3) was 37.5 and the APOPTOSIS ([2]; compound alone 50 μM, day 3) was 24.0. The G0/G1 ([2]; compound alone 50 μM, day 3) was 56.3, the G2/M ([2]; compound alone 50 μM, day 3) was 14.0 and the S ([2]; compound alone 50 μM, day 3) was 29.7.
With `OCCCCC(c1c[nH]c2ccccc12)c1c[nH]c2ccccc12` [ST 1346, 5-hydroxy-1,1-di-(indol-3-yl)-pentane] the AC50 [3] was 14.8 ± 1.6 µM, the “fold induction (differentiation, compound + ATRA vs ATRA alone)” value [3] was 2.7 and the AC50 ([1]; Homo sapiens, NB-4, 72 h) was 1.5 ± 0.5 µM. The “fold induction (differentiation, compound + ATRA vs ATRA alone)” value [1] was 3.0, the “dose reaching maximal effect in sensitising ATRA-induced terminal differentiation” value ([1]; doses 1, 5, 10, 50 μM with suboptimal ATRA) was 10 µM and the APOPTOSIS [2, 5] was 17.5. It also gave a G0/G1 [2, 5] of 57.1, a G2/M [2, 5] of 13.9 and an S [2, 5] of 29.0. The APOPTOSIS [2, 6] was 14, the G0/G1 [2, 6] was 61.5 and the G2/M [2, 6] was 12.9. For the same compound, the S [2, 6] was 25.6, the APOPTOSIS [2, 7] was 17.0 and the G0/G1 [2, 7] was 58.4. For the same compound, the G2/M [2, 7] was 13.9, the S [2, 7] was 27.7 and the APOPTOSIS [2, 8] was 13.5. The G0/G1 [2, 8] was 58.0, the G2/M [2, 8] was 13.5 and the S [2, 8] was 28.5. It also gave an APOPTOSIS [2, 9] of 15.0, a G0/G1 [2, 9] of 58.4 and a G2/M [2, 9] of 13.0. It also gave an S [2, 9] of 28.6, an APOPTOSIS [2, 10] of 13 and a G0/G1 [2, 10] of 60.0. It also gave a G2/M [2, 10] of 12.6, an S [2, 10] of 27.4 and an APOPTOSIS [2, 11] of 10.0. For the same compound, the G0/G1 [2, 11] was 82.2, the G2/M [2, 11] was 8.0 and the S [2, 11] was 9.8. The APOPTOSIS [2, 12] was 17, the G0/G1 [2, 12] was 84.2 and the G2/M [2, 12] was 6.3. For the same compound, the S [2, 12] was 9.5, the APOPTOSIS ([2]; compound alone 1 μM, day 3) was 23 and the G0/G1 ([2]; compound alone 1 μM, day 3) was 46.9. The G2/M ([2]; compound alone 1 μM, day 3) was 15.7, the S ([2]; compound alone 1 μM, day 3) was 37.4 and the APOPTOSIS ([2]; compound alone 5 μM, day 3) was 24. For the same compound, the G0/G1 ([2]; compound alone 5 μM, day 3) was 47.4, the G2/M ([2]; compound alone 5 μM, day 3) was 13.8 and the S ([2]; compound alone 5 μM, day 3) was 38.8. For the same compound, the APOPTOSIS ([2]; compound alone 10 μM, day 3) was 23, the G0/G1 ([2]; compound alone 10 μM, day 3) was 50.0 and the G2/M ([2]; compound alone 10 μM, day 3) was 14.7. For the same compound, the S ([2]; compound alone 10 μM, day 3) was 35.3, the APOPTOSIS ([2]; compound alone 50 μM, day 3) was 46 and the G0/G1 ([2]; compound alone 50 μM, day 3) was 59.4. For the same compound, the G2/M ([2]; compound alone 50 μM, day 3) was 7.3, the S ([2]; compound alone 50 μM, day 3) was 33.3 and the “effect of the compound alone on cell cycle and apoptosis (in words)” value [2] was “induce growth arrest (in the G0/G1 phase of the cell cycle) and apoptosis”.
For `Cn1cc(C(CCCCO)c2cn(C)c3ccccc23)c2ccccc21` [ST 1974, 5,5-bis-(1-methyl-1H-indol-3-yl)-1 Pentanol], the AC50 [3] was 9.5 ± 2.6 µM, the “fold induction (differentiation, compound + ATRA vs ATRA alone)” value [3] was 1.6 and the G0/G1 ([4]; compound 1 μM + ATRA 0.5 μM) was 62.0. It also gave a G2/M ([4]; compound 1 μM + ATRA 0.5 μM) of 11.7, an S ([4]; compound 1 μM + ATRA 0.5 μM) of 26.3 and a G0/G1 ([4]; compound 5 μM + ATRA 0.5 μM) of 63.8. For the same compound, the G2/M ([4]; compound 5 μM + ATRA 0.5 μM) was 10.5, the S ([4]; compound 5 μM + ATRA 0.5 μM) was 25.7 and the G0/G1 ([4]; compound 10 μM + ATRA 0.5 μM) was 65.4. For the same compound, the G2/M ([4]; compound 10 μM + ATRA 0.5 μM) was 10.5, the S ([4]; compound 10 μM + ATRA 0.5 μM) was 24.1 and the G0/G1 ([4]; compound 50 μM + ATRA 0.5 μM) was 81.8. For the same compound, the G2/M ([4]; compound 50 μM + ATRA 0.5 μM) was 10.6, the S ([4]; compound 50 μM + ATRA 0.5 μM) was 7.6 and the G0/G1 ([4]; compound alone 1 μM) was 58.9. For the same compound, the G2/M ([4]; compound alone 1 μM) was 11.1, the S ([4]; compound alone 1 μM) was 30 and the G0/G1 ([4]; compound alone 5 μM) was 59.3. It also gave a G2/M ([4]; compound alone 5 μM) of 11.4, an S ([4]; compound alone 5 μM) of 29.3 and a G0/G1 ([4]; compound alone 10 μM) of 57.8. For the same compound, the G2/M ([4]; compound alone 10 μM) was 12.2, the S ([4]; compound alone 10 μM) was 30 and the G0/G1 ([4]; compound alone 50 μM) was 67.7. It also gave a G2/M ([4]; compound alone 50 μM) of 12.3, an S ([4]; compound alone 50 μM) of 20 and an AC50 ([1]; Homo sapiens, NB-4, 72 h) of 7.8 ± 2.6 µM. For the same compound, the “fold induction (differentiation, compound + ATRA vs ATRA alone)” value [1] was 1.8.
With `OCCCC(c1c[nH]c2ccccc12)c1c[nH]c2ccccc12` [ST 1707, 1,1-di(indol-3-yl)-4-hydroxy-butane] the AC50 ([1]; Homo sapiens, NB-4, 72 h) was 8.3 ± 0.05 µM, the “fold induction (differentiation, compound + ATRA vs ATRA alone)” value [1] was 2.5 and the APOPTOSIS [2, 5] was 17.0. The G0/G1 [2, 5] was 65.4, the G2/M [2, 5] was 11.8 and the S [2, 5] was 22.8. It also gave an APOPTOSIS [2, 7] of 14.0, a G0/G1 [2, 7] of 69.8 and a G2/M [2, 7] of 11.3. The S [2, 7] was 18.9, the APOPTOSIS [2, 9] was 13.0 and the G0/G1 [2, 9] was 70.4. For the same compound, the G2/M [2, 9] was 11.5, the S [2, 9] was 18.1 and the APOPTOSIS [2, 11] was 11.5. The G0/G1 [2, 11] was 80.6, the G2/M [2, 11] was 9.0 and the S [2, 11] was 10.4. The APOPTOSIS ([2]; compound alone 1 μM, day 3) was 17.0, the G0/G1 ([2]; compound alone 1 μM, day 3) was 51.7 and the G2/M ([2]; compound alone 1 μM, day 3) was 10.1. For the same compound, the S ([2]; compound alone 1 μM, day 3) was 38.2, the APOPTOSIS ([2]; compound alone 5 μM, day 3) was 19.5 and the G0/G1 ([2]; compound alone 5 μM, day 3) was 52.5. For the same compound, the G2/M ([2]; compound alone 5 μM, day 3) was 11.1, the S ([2]; compound alone 5 μM, day 3) was 36.4 and the APOPTOSIS ([2]; compound alone 10 μM, day 3) was 17.5. For the same compound, the G0/G1 ([2]; compound alone 10 μM, day 3) was 52.2, the G2/M ([2]; compound alone 10 μM, day 3) was 10.8 and the S ([2]; compound alone 10 μM, day 3) was 37.0. The APOPTOSIS ([2]; compound alone 50 μM, day 3) was 17.0, the G0/G1 ([2]; compound alone 50 μM, day 3) was 52.0 and the G2/M ([2]; compound alone 50 μM, day 3) was 12.0. The S ([2]; compound alone 50 μM, day 3) was 36.0 and the “effect of the compound alone on cell cycle and apoptosis (in words)” value [2] was “does not induce apoptosis”.
